Experimental data: US20210338820A1, “PHARMACEUTICAL COMPOSITION COMPRISING ANTIEMETIC COMPOUNDS AND POLYORTHOESTER” (Heron Therapeutics, Inc., priority 2012, published 2021)

Tests used:
[1] = In-vitro release of formulation of fosaprepitant and granisetron (Example 6 formulation); assay type: physicochemical; conditions: 37° C.; for active agent released from the formulation: Example 6 formulation, PBS; for in vitro release proceeded in a linear fashion up to: Example 6 semi-solid polyorthoester formulation, phosphate buffered saline, HPLC, FIG. 1
Source text: In a fifth embodiment, a formulation as described in Example 6 was weighed into vials and filled with a phosphate buffered saline solution.
A formulation as described in Example 6 was weighed into vials and filled with a phosphate buffered saline solution.

[2] = In-vitro release of formulation of aprepitant and granisetron (Example 1 formulation); assay type: physicochemical; conditions: 37° C.; for active agent released from the formulation: Example 1 formulation, PBS + 2% CTAB; for in vitro release proceeded in a linear fashion up to: Example 1 semi-solid polyorthoester formulation, phosphate buffered saline + 2% CTAB, HPLC, FIG. 3
Description: In a first embodiment, 375 mg of aprepitant was dissolved in 1.3 g of a polyorthoester-compatible liquid excipient, dimethyl sulfoxide, and heated until completely dissolved. […] In a further embodiment, the formulation was weighed into vials and filled with a phosphate buffered saline solution and 2% CTAB (cetrimonium bromide). The vials were then stored at 37° C. Aliquots were taken daily and analyzed by HPLC to monitor for the release of granisetron and aprepitant from the formulation.
A formulation as described in Example 1 was weighed into vials and filled with a phosphate buffered saline solution and 2% CTAB (cetrimonium bromide). The vials were then stored at 37° C. Aliquots were taken daily and analyzed by HPLC to monitor for the release of granisetron and aprepitant from the formulation.

[3] = In vitro release of a formulation containing aprepitant (Example 3 formulation); assay type: physicochemical; conditions: Example 3 semi-solid polyorthoester formulation; PBS + 2% CTAB, 37° C., HPLC, FIG. 4
Description: In a further embodiment, the formulation was weighed into vials and filled with a phosphate buffered saline solution and 2% CTAB. The vials were then stored at 37° C. and analyzed by HPLC to monitor for the release of aprepitant from the formulation (see FIG. 4).
A formulation as described in Example 3 was weighed into vials and filled with a phosphate buffered saline solution and 2% CTAB. The vials were then stored at 37° C. and analyzed by HPLC to monitor for the release of aprepitant from the formulation.

[4] = dog, in vivo, sc
Description: The syringes were stored at 2-8 C and brought to room temperature 1 hour before administration. Each dog received a single subcutaneous injection of the entire contents of 1 syringe (0.5 gm) over the dorsal lumbar muscle on Day 1. Blood was drawn from all dogs at the following time points: T=0, (immediately prior to drug administration), 1, 6, 12, 24, 48, 72, 96, 120, 144, and 168 hours post administration.

Row | Structure (SMILES) | active agent released from the formulation ([1]; after about 60 hours) | active agent released from the formulation ([1]; at about 45 hours) | in vitro release proceeded in a linear fashion up to [1] | active agent released from the formulation ([2]; at about 48 hours) | active agent released from the formulation ([2]; at about 144 hours) | in vitro release proceeded in a linear fashion up to [2] | active agent released from the formulation ([1]; at about 100 hours) | active agent released from the formulation ([2]; after about 120 hours) | in vitro release proceeded in a linear fashion up to [3] | bioavailability (areas under the curves) [4]
1 | C[C@@H](O[C@H]1OCCN(Cc2nc(O)n(P(=O)(O)O)n2)[C@H]1c1ccc(F)cc1)c1cc(C(F)(F)F)cc(C(F)(F)F)c1 [fosaprepitant] | about 60% | about 25% | about 45 hours |  |  |  |  |  |  | 
2 | CN1C2CCCC1CC(NC(=O)c1nn(C)c3ccccc13)C2 (centres unmarked) [granisetron] | about 80% | about 25% | about 45 hours | about 65% | about 90% | about 48 hours | Nearly all |  |  | 
3 | C[C@@H](O[C@H]1OCCN(Cc2n[nH]c(=O)[nH]2)[C@H]1c1ccc(F)cc1)c1cc(C(F)(F)F)cc(C(F)(F)F)c1 [aprepitant] |  |  |  | about 65% | Essentially all | about 48 hours | about 65% | about 90% | about 72 hours | good bioavailability
